Assay results reported in PubChem BioAssay (NCI).
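Five compound concentrations were applied to cells in 96-well plates for 48 hours; endpoints were derived by simple linear interpolation of the resulting dose-response curve. GI50 = concentration required for 50% inhibition of growth. TGI denotes the concentration required for complete inhibition of growth.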

Key:
Assay in all cases: growth of human tumour cells (NCI), 48 h
NCI-H23 lung = system: NCI-H23 lung
SK-MEL-2 melanoma = system: SK-MEL-2 melanoma
DU-145 prostate = system: DU-145 prostate
UACC-62 melanoma = system: UACC-62 melanoma
MDA-MB-435 = system: MDA-MB-435
HCC-2998 colon = system: HCC-2998 colon
OVCAR-8 ovarian = system: OVCAR-8 ovarian
ACHN renal = system: ACHN renal
SK-MEL-28 melanoma = system: SK-MEL-28 melanoma
HL-60(TB) leukemia = system: HL-60(TB) leukemia
HT29 colon = system: HT29 colon
OVCAR-3 ovarian = system: OVCAR-3 ovarian
786-0 renal = system: 786-0 renal
KM12 colon = system: KM12 colon
CCRF-CEM leukemia = system: CCRF-CEM leukemia
MDA-MB-468 breast = system: MDA-MB-468 breast
EKVX NSCLC = system: EKVX NSCLC
SF-539 CNS = system: SF-539 CNS
SF-268 CNS = system: SF-268 CNS
T-47D breast = system: T-47D breast
MCF7 breast = system: MCF7 breast
CAKI-1 renal = system: CAKI-1 renal
SK-OV-3 ovarian = system: SK-OV-3 ovarian
HCT-15 colon = system: HCT-15 colon
RXF 393 renal = system: RXF 393 renal
SNB-75 CNS = system: SNB-75 CNS
M14 melanoma = system: M14 melanoma
UACC-257 melanoma = system: UACC-257 melanoma
SR leukemia = system: SR leukemia
NCI-H226 lung = system: NCI-H226 lung
SN12C renal = system: SN12C renal
U251 CNS = system: U251 CNS
RPMI-8226 leukemia = system: RPMI-8226 leukemia
PC-3 prostate = system: PC-3 prostate
MOLT-4 leukemia = system: MOLT-4 leukemia
UO-31 renal = system: UO-31 renal
HS 578T breast = system: HS 578T breast
SW-620 colon = system: SW-620 colon
COLO 205 colon = system: COLO 205 colon
NCI-H460 lung = system: NCI-H460 lung
SF-295 CNS = system: SF-295 CNS
A549 NSCLC = system: A549 NSCLC
IGROV1 ovarian = system: IGROV1 ovarian
HOP-92 NSCLC = system: HOP-92 NSCLC
OVCAR-5 ovarian = system: OVCAR-5 ovarian
K-562 leukemia = system: K-562 leukemia
BT-549 breast = system: BT-549 breast
TK-10 renal = system: TK-10 renal
SK-MEL-5 melanoma = system: SK-MEL-5 melanoma
MDA-MB-231 breast = system: MDA-MB-231 breast
OVCAR-4 ovarian = system: OVCAR-4 ovarian
A498 renal = system: A498 renal
HOP-62 NSCLC = system: HOP-62 NSCLC
MALME-3M melanoma = system: MALME-3M melanoma
NCI-H522 lung = system: NCI-H522 lung
NCI/ADR-RES ovarian = system: NCI/ADR-RES ovarian
HCT-116 colon = system: HCT-116 colon
SNB-19 CNS = system: SNB-19 CNS
LOX IMVI melanoma = system: LOX IMVI melanoma

O=C(c1ccc(Cl)cc1)C(c1c[nH]c2ccccc12)c1c[nH]c2ccccc12
GI50 (NCI-H23 lung): 4.05 µM
TGI (NCI-H23 lung): 17.4 µM
GI50 (SK-MEL-2 melanoma): 12.2 µM
TGI (SK-MEL-2 melanoma): 26.1 µM
GI50 (DU-145 prostate): 4.36 µM
TGI (DU-145 prostate): 16.4 µM
GI50 (UACC-62 melanoma): 4.49 µM
TGI (UACC-62 melanoma): 17.6 µM
GI50 (MDA-MB-435): 3.85 µM
TGI (MDA-MB-435): 14.3 µM
GI50 (HCC-2998 colon): 2.33 µM
TGI (HCC-2998 colon): 5.8 µM
GI50 (OVCAR-8 ovarian): 11.2 µM
TGI (OVCAR-8 ovarian): 24.2 µM
GI50 (ACHN renal): 1.91 µM
TGI (ACHN renal): 4.17 µM
GI50 (SK-MEL-28 melanoma): 2.36 µM
TGI (SK-MEL-28 melanoma): 6.42 µM
GI50 (HL-60(TB) leukemia): 2.6 µM
TGI (HL-60(TB) leukemia): 8.35 µM
GI50 (HT29 colon): 2.79 µM
TGI (HT29 colon): 6.97 µM
GI50 (OVCAR-3 ovarian): 2.56 µM
TGI (OVCAR-3 ovarian): 7.18 µM
GI50 (786-0 renal): 2.12 µM
TGI (786-0 renal): 4.22 µM
GI50 (KM12 colon): 8.98 µM
TGI (KM12 colon): 22 µM
GI50 (CCRF-CEM leukemia): 3.21 µM
TGI (CCRF-CEM leukemia): > 100 µM
GI50 (MDA-MB-468 breast): 2.69 µM
TGI (MDA-MB-468 breast): 7.65 µM
GI50 (EKVX NSCLC): 6.46 µM
TGI (EKVX NSCLC): 20.8 µM
GI50 (SF-539 CNS): 5.53 µM
TGI (SF-539 CNS): 18.8 µM
GI50 (SF-268 CNS): 4.85 µM
TGI (SF-268 CNS): 19.8 µM
GI50 (T-47D breast): 3.01 µM
TGI (T-47D breast): 16 µM
GI50 (MCF7 breast): 2.38 µM
TGI (MCF7 breast): 8.25 µM
GI50 (CAKI-1 renal): 2.94 µM
TGI (CAKI-1 renal): 14.3 µM
GI50 (SK-OV-3 ovarian): 14.1 µM
TGI (SK-OV-3 ovarian): 27.7 µM
GI50 (HCT-15 colon): 2.21 µM
TGI (HCT-15 colon): 6.16 µM
GI50 (RXF 393 renal): 2.93 µM
TGI (RXF 393 renal): 9.21 µM
GI50 (SNB-75 CNS): 2.43 µM
TGI (SNB-75 CNS): 13.3 µM
GI50 (M14 melanoma): 2.9 µM
TGI (M14 melanoma): 12.7 µM
GI50 (UACC-257 melanoma): 4.93 µM
TGI (UACC-257 melanoma): 18.1 µM
GI50 (SR leukemia): 2.73 µM
TGI (SR leukemia): 10.9 µM
GI50 (NCI-H226 lung): 8.88 µM
TGI (NCI-H226 lung): 24.7 µM
GI50 (SN12C renal): 3.13 µM
TGI (SN12C renal): 12 µM
GI50 (U251 CNS): 10.8 µM
TGI (U251 CNS): 24.1 µM
GI50 (RPMI-8226 leukemia): 3.01 µM
TGI (RPMI-8226 leukemia): 15.4 µM
GI50 (PC-3 prostate): 3.08 µM
TGI (PC-3 prostate): 12.7 µM
GI50 (MOLT-4 leukemia): 2.69 µM
TGI (MOLT-4 leukemia): 12.2 µM
GI50 (UO-31 renal): 3.41 µM
TGI (UO-31 renal): 17 µM
GI50 (HS 578T breast): 13.4 µM
TGI (HS 578T breast): 45.8 µM
GI50 (SW-620 colon): 2.99 µM
TGI (SW-620 colon): 9.91 µM
GI50 (COLO 205 colon): 16.3 µM
TGI (COLO 205 colon): 31.2 µM
GI50 (NCI-H460 lung): 3.65 µM
TGI (NCI-H460 lung): 14.9 µM
GI50 (SF-295 CNS): 12.1 µM
TGI (SF-295 CNS): 24.9 µM
GI50 (A549 NSCLC): 13.5 µM
TGI (A549 NSCLC): 31.6 µM
GI50 (IGROV1 ovarian): 4.05 µM
TGI (IGROV1 ovarian): 16.8 µM
GI50 (HOP-92 NSCLC): 3.32 µM
TGI (HOP-92 NSCLC): 16.8 µM
GI50 (OVCAR-5 ovarian): 3.79 µM
TGI (OVCAR-5 ovarian): 15.5 µM
GI50 (K-562 leukemia): 2.99 µM
TGI (K-562 leukemia): 9.64 µM
GI50 (BT-549 breast): 4.09 µM
TGI (BT-549 breast): 14.4 µM
GI50 (TK-10 renal): 18.9 µM
TGI (TK-10 renal): 33.2 µM
GI50 (SK-MEL-5 melanoma): 11.3 µM
TGI (SK-MEL-5 melanoma): 23.7 µM
GI50 (MDA-MB-231 breast): 4.87 µM
TGI (MDA-MB-231 breast): 20.2 µM
GI50 (OVCAR-4 ovarian): 5.23 µM
TGI (OVCAR-4 ovarian): 18.2 µM
GI50 (A498 renal): 18 µM
TGI (A498 renal): 34.1 µM
GI50 (HOP-62 NSCLC): 13 µM
TGI (HOP-62 NSCLC): 27.3 µM
GI50 (MALME-3M melanoma): 3.41 µM
TGI (MALME-3M melanoma): 15.9 µM
GI50 (NCI-H522 lung): 1.74 µM
TGI (NCI-H522 lung): 3.52 µM
GI50 (NCI/ADR-RES ovarian): 3.52 µM
TGI (NCI/ADR-RES ovarian): 15.8 µM
GI50 (HCT-116 colon): 1.65 µM
TGI (HCT-116 colon): 3.16 µM
GI50 (SNB-19 CNS): 15.4 µM
TGI (SNB-19 CNS): 29.6 µM
GI50 (LOX IMVI melanoma): 1.68 µM
TGI (LOX IMVI melanoma): 3.26 µM
